From patent US10973912B2, “Treatment for myopathy” (Children's Medical Center Corporation, priority 2015, dated 2021)
Entries after “also recorded” stand apart in the source; their conditions may differ.

How the values were obtained:
ryr1b mutants [1] = test: Body angle measurement after 20 days of treatment; assay type: in vivo, zebrafish (Danio rerio)
Procedure: In FIG. 10A, body angles of ryr1b mutants after 20 days of NIF treatment (10.0 μg/mL) are corrected and statistically indistinguishable from wild-type controls. […] Angles were measured by first drawing/extending straight lines between the eyes of the larva as well as along the midline of the trunk (shown by dotted red lines). The angle of intersection was determined using Adobe Photoshop CS3 software (WT-DMSO: 179.1±0.9°, n=6; WT-NIF: 176.8±1.1°, n=6; ryr1b-DMSO: 142.6±6.2°, n=11; ryr1b-NIF: 174.4±2.0°, n=4). Significance was determined by a one-way ANOVA (F=13.60, P<0.0001), followed by pairwise Tukey's HSD post hoc tests. […] Three independent trials were performed with larvae from three different clutches, examining a total of 14-20 wild-type and ryr1b larvae from both DMSO- and NIF-treated groups. Genotypes of individual embryos were confirmed by genomic PCR following the study. Significance was determined by a one-way ANOVA (F=10.03, P=0.0009), followed by pairwise Tukey's HSD post hoc tests. […] One representative 20-minute time interval within the recording period is shown.
This bending is likely a consequence of skeletal muscle weakness, and may be analogous to neck and trunk flexor weakness observed in human patients with MmD (FIG. 10A). To determine if NIF could correct this abnormality, larvae were treated with the compound from 1 to 20 dpf. After 20 days, body angles were measured as the angle of intersection between two lines, one drawn between the eyes of each larva and one drawn along the trunk midline. […] These improvements in morphology reflect long-term strengthening of ryr1b skeletal muscles as a result of exposure to NIF.

wild-type mouse myotubes = test: Calcium imaging, caffeine dose response of depolarization-induced calcium release; assay type: cell-based, mouse (C57BL/6N); settings: wild-type background, cultured 5 days with compound
Procedure: Tetanic forces were measured following stimulation with 9 biphasic, 200 μs square-wave pulses at 300 Hz (WT-DMSO: 45.6±4.2 kPa, n=5; WT-NIF: 52.8±4.1 kPa, n=5; ryr1b-DMSO: 11.4±1.3 kPa, n=7; ryr1b-NIF: 25.4±4.0 kPa, n=7). Significance was determined by a one-way ANOVA (F=29.61, P<0.0001), followed by pairwise Tukey's HSD post hoc tests. […] Non-linear regression data of curves were not statistically different, as determined by an extra sum-of-squares F test (P=1.0).
Primary myoblasts from C57BL/6N mice were isolated and differentiated as described previously^39. Calcium imaging was performed 5 days after differentiation in myotubes loaded with 3 μM Fluo-4-AM (Life Technologies). Myotubes were imaged in imaging buffer (125 mM NaCl, 5 mM KCl, 2 mM CaCl2, 1.2 mM MgSO4, 6 mM glucose, 2 mM Ca^2+, 25 mM Hepes/Tris, pH 7.4) at 490-500 nm with a Stanford Photonics 10 bit digital intensified CCD using a DG4 multi-wavelength light source. Fluorescent emission at 510 was acquired and analyzed using QED Imaging software (QED Software, Pittsburgh, Pa., USA) from regions of interest within each myotube at 30 frames per second. Sensitivity to K^+-depolarization and caffeine-activation were determined by a 5 second perfusion with 5-6 volumes of KCl (10 mM to 60 mM) or caffeine (3 mM to 40 mM). […]

ryr1b zebrafish = test: Activity monitoring (Noldus Daniovision), spontaneous swimming at 20 dpf; assay type: in vivo, zebrafish (Danio rerio); settings: long-term treatment
Procedure: In FIG. 10A, body angles of ryr1b mutants after 20 days of NIF treatment (10.0 μg/mL) are corrected and statistically indistinguishable from wild-type controls. […] Angles were measured by first drawing/extending straight lines between the eyes of the larva as well as along the midline of the trunk (shown by dotted red lines). The angle of intersection was determined using Adobe Photoshop CS3 software (WT-DMSO: 179.1±0.9°, n=6; WT-NIF: 176.8±1.1°, n=6; ryr1b-DMSO: 142.6±6.2°, n=11; ryr1b-NIF: 174.4±2.0°, n=4). Significance was determined by a one-way ANOVA (F=13.60, P<0.0001), followed by pairwise Tukey's HSD post hoc tests. […] Significance was determined by a one-way ANOVA (F=10.03, P=0.0009), followed by pairwise Tukey's HSD post hoc tests. […]
Zebrafish behavioral parameters were defined using the Noldus Daniovision activity monitoring system. […] Swimming behaviors were recorded over the entire 2.0-hour period with an infrared light source. […] Behavioral parameters recorded include frequency, mean velocity, total distance, and cumulative duration of movement, and reflect the average of all larvae in an experimental group.
Next, to determine if long-term NIF treatment affects ryr1b motor functions, spontaneous swimming behaviors of 20 dpf larvae were quantified using the Noldus Daniovision. […]

ryr1b mutants [2] = test: Kaplan-Meier survival of ryr1b mutants; assay type: in vivo, zebrafish (Danio rerio); settings: 10 μg/mL from 1 to 50 dpf
Procedure: Kaplan-Meier survival curves of ryr1b mutants treated with either DMSO or NIF (10 μg/mL) from 1 to 50 dpf. Mutants were sorted from unaffected controls at 5 dpf using a touch-evoked escape behavior assay. Untreated fish all died by 35 days of life. Median survival of DMSO-versus NIF-treated mutants was 15.0 and 13.0 days, respectively.
In addition to their muscular defects, ryr1b mutants die prematurely^30. To examine whether long-term treatment with NIF positively impacts the life span of ryr1b mutants, affected larvae (selected at 5 dpf by touch-evoked escape behavior assay) were treated with compound from 1 to 50 dpf.

O=C(N/N=C/c1ccc([N+](=O)[O-])o1)c1ccc(O)cc1 [Nifuroxazide]
body angle, wild-type larvae (ryr1b mutants [1]; 20 days of treatment, 10.0 μg/mL, WT, n=6): 176.8±1.1 °
body angle, ryr1b mutants (ryr1b mutants [1]; 20 days of treatment, 10.0 μg/mL, ryr1b, n=4, ryr1b-DMSO 142.6±6.2): 174.4±2.0 °
body angles of treated ryr1b mutants (ryr1b mutants [1]; treated from 1 to 20 dpf): significantly increased and statistically indistinguishable from unaffected controls
calcium release in response to caffeine (wild-type mouse myotubes): only very modest increases in calcium release
distance travelled during 2.0-hour period (ryr1b zebrafish): large and robust increase on the distance travelled by ryr1b zebrafish
survival of ryr1b mutants (ryr1b mutants [2]; listed as NIF): did not significantly differ; also recorded: two affected fish treated with NIF survived until termination of the study
median survival (ryr1b mutants [2]; ryr1b mutants, DMSO 15.0 days, log-rank P=0.5): 13.0 days
